Data published in ChEMBL document CHEMBL5365405, “Discovery of potent NAMPT-Targeting PROTACs using FK866 as the warhead” (Bioorg Med Chem Lett, 2023).
pEC50, pIC50: −log10 of the molar value. The source made the active and inactive calls. The calls are words filed in the database; no cut-off is given here.

What was measured:
[1] = Cytotoxicity activity against HUVEC cells assessed as cell growth inhibition; type: toxicity, cell-based; details: human
[2] = system: A2780; assay: Antiproliferative activity against human A2780 cells assessed as cell growth inhibition; type: functional, cell-based
[3] = target: Nicotinamide phosphoribosyltransferase (Homo sapiens, UniProt P43490); assay: Inhibition of NAMPT (unknown origin)
Nicotinamide phosphoribosyltransferase, sequence (P43490 whole entry): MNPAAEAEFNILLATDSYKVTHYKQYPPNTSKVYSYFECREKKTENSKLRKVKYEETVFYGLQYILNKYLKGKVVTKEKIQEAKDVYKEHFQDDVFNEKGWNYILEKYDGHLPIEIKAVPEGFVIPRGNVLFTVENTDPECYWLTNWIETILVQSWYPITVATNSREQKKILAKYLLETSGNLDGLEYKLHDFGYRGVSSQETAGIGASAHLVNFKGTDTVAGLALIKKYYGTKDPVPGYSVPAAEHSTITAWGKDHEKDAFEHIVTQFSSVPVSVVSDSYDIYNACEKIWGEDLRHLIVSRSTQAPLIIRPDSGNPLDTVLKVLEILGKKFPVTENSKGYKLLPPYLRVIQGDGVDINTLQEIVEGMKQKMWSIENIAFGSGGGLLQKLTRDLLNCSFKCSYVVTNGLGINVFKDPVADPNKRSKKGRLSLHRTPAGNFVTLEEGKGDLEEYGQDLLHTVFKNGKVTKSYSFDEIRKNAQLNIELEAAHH

[4] = target: von Hippel-Lindau disease tumor suppressor/Nicotinamide phosphoribosyltransferase (Homo sapiens, UniProt P40337+P43490); assay: (§1) PROTAC activity at VHL/NAMPT in human A2780 cells assessed as protein degradation measured after 24 hrs by Western blot analysis; type: cell-based
von Hippel-Lindau disease tumor suppressor/Nicotinamide phosphoribosyltransferase, sequence (P43490 whole entry): as above
von Hippel-Lindau disease tumor suppressor/Nicotinamide phosphoribosyltransferase, sequence (P40337 whole entry): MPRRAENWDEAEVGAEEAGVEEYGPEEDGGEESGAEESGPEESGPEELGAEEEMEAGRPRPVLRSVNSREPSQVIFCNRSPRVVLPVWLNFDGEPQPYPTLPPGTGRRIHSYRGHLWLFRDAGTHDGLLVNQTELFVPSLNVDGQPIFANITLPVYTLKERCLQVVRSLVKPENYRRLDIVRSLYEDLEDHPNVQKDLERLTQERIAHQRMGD

[5] = target: T1, von Hippel-Lindau disease tumor suppressor/Nicotinamide phosphoribosyltransferase (Homo sapiens) (UniProt P43490+P40337); assay: as §1; type: cell-based
T1 sequence (P40337 whole entry, looked up): as the sequence (P40337 whole entry) above
T1 sequence (P43490 whole entry, looked up): as the sequence (P43490 whole entry) above

[6] = system: A2780; assay: Induction of apoptosis in human A2780 cells assessed as total apoptotic cells at 40 nM incubated for 48 hrs by flow cytometry analysis (reference value: 9.27 %); type: functional
[7] = system: A2780; assay: Induction of apoptosis in human A2780 cells assessed as total apoptotic cells at 1.6 nM incubated for 48 hrs by flow cytometry analysis (reference value: 9.27 %); type: functional
[8] = system: A2780; assay: Induction of apoptosis in human A2780 cells assessed as total apoptotic cells at 1000 nM incubated for 48 hrs by flow cytometry analysis (reference value: 9.27 %); type: functional
[9] = target: T1, von Hippel-Lindau disease tumor suppressor/Nicotinamide phosphoribosyltransferase (Homo sapiens); assay: PROTAC activity at VHL/NAMPT in human A2780 cells assessed as protein degradation at 200 nM preincubated with VHL-Ac followed by compound addition and measured after 24 hrs by Western blot analysis; type: cell-based
[10] = target: T1, von Hippel-Lindau disease tumor suppressor/Nicotinamide phosphoribosyltransferase (Homo sapiens); assay: PROTAC activity at VHL/NAMPT in human A2780 cells assessed as protein degradation at 200 nM preincubated with MLN4924 followed by compound addition and measured after 24 hrs by Western blot analysis; type: cell-based
[11] = target: T1, von Hippel-Lindau disease tumor suppressor/Nicotinamide phosphoribosyltransferase (Homo sapiens); assay: PROTAC activity at VHL/NAMPT in human A2780 cells assessed as protein degradation at 200 nM measured after 24 hrs by Western blot analysis relative to control; type: cell-based
[12] = target: T1, von Hippel-Lindau disease tumor suppressor/Nicotinamide phosphoribosyltransferase (Homo sapiens); assay: PROTAC activity at VHL/NAMPT in human A2780 cells assessed as protein degradation at 200 nM preincubated with NAMPT inhibitor, FK866 followed by compound addition and measured after 24 hrs by Western blot analysis; type: cell-based
[13] = target: T1, von Hippel-Lindau disease tumor suppressor/Nicotinamide phosphoribosyltransferase (Homo sapiens); assay: PROTAC activity at VHL/NAMPT in human A2780 cells assessed as protein degradation at 200 nM by Western blot analysis; type: cell-based; details: TDE = time-dependent effect
[14] = target: T1, von Hippel-Lindau disease tumor suppressor/Nicotinamide phosphoribosyltransferase (Homo sapiens); assay: PROTAC activity at VHL/NAMPT in human A2780 cells assessed as protein degradation at 200 nM preincubated with carfilzomib followed by compound addition and measured after 24 hrs by Western blot analysis; type: cell-based
[15] = target: T1, von Hippel-Lindau disease tumor suppressor/Nicotinamide phosphoribosyltransferase (Homo sapiens); assay: PROTAC activity at VHL/NAMPT in human A2780 cells assessed as protein degradation at 200 nM preincubated with VHL-Boc followed by compound addition and measured after 24 hrs by Western blot analysis; type: cell-based
[16] = target: T1, von Hippel-Lindau disease tumor suppressor/Nicotinamide phosphoribosyltransferase (Homo sapiens); assay: PROTAC activity at VHL/NAMPT in human A2780 cells assessed as protein degradation at 200 nM preincubated with MG132 followed by compound addition and measured after 24 hrs by Western blot analysis; type: cell-based

Row | pIC50 [2] | pIC50 [3] | pEC50 [4] | Activity [5] | Compound | pIC50 [1] | further results
1 | 7.47 | 8.82 |  |  | Cc1ncsc1-c1ccc([C@H](C)NC(=O)[C@@H]2C[C@@H](O)CN2C(=O)[C@@H](NC(=O)CCCNC(=O)c2ccc(C(=O)N3CCC(CCCCNC(=O)/C=C/c4cccnc4)CC3)cc2)C(C)(C)C)cc1 | 8.98 | 
2 | 7.16 | 8.14 | < 6.30 |  | Cc1ncsc1-c1ccc([C@H](C)NC(=O)[C@@H]2C[C@@H](O)CN2C(=O)[C@@H](NC(=O)CCCCCCCCCNC(=O)c2ccc(C(=O)N3CCC(CCCCNC(=O)/C=C/c4cccnc4)CC3)cc2)C(C)(C)C)cc1 | 8.82 | 
3 | 8.52 | 8.57 | 6.72 | Dose-Dependent Effect | Cc1ncsc1-c1ccc([C@H](C)NC(=O)[C@@H]2C[C@@H](O)CN2C(=O)[C@@H](NC(=O)CCCCNC(=O)c2ccc(C(=O)N3CCC(CCCCNC(=O)/C=C/c4cccnc4)CC3)cc2)C(C)(C)C)cc1 | 9.68 | 
4 | 7.42 | 8.51 | 7.26 | Dose-Dependent Effect | Cc1ncsc1-c1ccc([C@H](C)NC(=O)[C@@H]2C[C@@H](O)CN2C(=O)[C@@H](NC(=O)CCCCCCCCNC(=O)c2ccc(C(=O)N3CCC(CCCCNC(=O)/C=C/c4cccnc4)CC3)cc2)C(C)(C)C)cc1 | 9.05 | 
5 | > 8.52 |  |  |  | O=C(/C=C/c1cccnc1)NCCCCC1CCN(C(=O)c2ccccc2)CC1 [DAPORINAD] | > 12.00 | Activity [6]: 16.3%; Activity [7]: 10.22%; Activity [8]: 26.84%
6 | 8.62 | 8.25 | 6.53 | Dose-Dependent Effect | Cc1ncsc1-c1ccc([C@H](C)NC(=O)[C@@H]2C[C@@H](O)CN2C(=O)[C@@H](NC(=O)CCCCCNC(=O)c2ccc(C(=O)N3CCC(CCCCNC(=O)/C=C/c4cccnc4)CC3)cc2)C(C)(C)C)cc1 | 9.35 | 
7 | 8.23 | 8.80 | 7.25 | Dose-Dependent Effect | Cc1ncsc1-c1ccc([C@H](C)NC(=O)[C@@H]2C[C@@H](O)CN2C(=O)[C@@H](NC(=O)CCCCCCNC(=O)c2ccc(C(=O)N3CCC(CCCCNC(=O)/C=C/c4cccnc4)CC3)cc2)C(C)(C)C)cc1 | 10.15 | 
8 | > 8.40 |  |  |  | Cc1ncsc1-c1ccc([C@H](C)NC(=O)[C@@H]2C[C@@H](O)CN2C(=O)[C@@H](NC(=O)COCCOCCOCCOCCNC(=O)c2ccc(CN3CCN(S(=O)(=O)c4ccc(NC(=S)NCc5cccnc5)cc4)CC3)cc2)C(C)(C)C)cc1 |  | 
9 | 7.39 | 8.83 | 6.95 |  | Cc1ncsc1-c1ccc([C@H](C)NC(=O)[C@@H]2C[C@@H](O)CN2C(=O)[C@@H](NC(=O)CCCCCCCCCCNC(=O)c2ccc(C(=O)N3CCC(CCCCNC(=O)/C=C/c4cccnc4)CC3)cc2)C(C)(C)C)cc1 | 8.65 | 
10 | 7.51 | 8.67 | 7.50 | Dose-Dependent Effect | Cc1ncsc1-c1ccc([C@H](C)NC(=O)[C@@H]2C[C@@H](O)CN2C(=O)[C@@H](NC(=O)CCCCCCCNC(=O)c2ccc(C(=O)N3CCC(CCCCNC(=O)/C=C/c4cccnc4)CC3)cc2)C(C)(C)C)cc1 | 9.52 | Activity [9]: inactive; Activity [10]: inactive; Activity [11]: 78%; Activity [6]: 14.57%; Activity [12]: inactive; Activity [13]: Tde; Activity [14]: inactive; Activity [7]: 10.15%; Activity [8]: 20.81%; Activity [15]: inactive; Activity [16]: inactive
